Consider 27 compounds from paper PMC5071162 (ACS chemical neuroscience, 2016).

pEC50: −log10 of the molar value. Read-outs that look alike come from different tables or passages of the source.

The target in this test is human GPR88 (Homo sapiens, UniProt Q9GZN0). The test can be described thus: Lance cAMP assay using stable PPLS-HA-GPR88 CHO cells. Particulars: for agonist activity in words: qualitative SAR statement, Lance cAMP assay; for EC50: EC50 (nM). In kind it is cell-based. For orientation: Cyclic AMP is a second messenger, typically raised through Gs and lowered through Gi signalling.
Sequence of human GPR88 (Q9GZN0 whole entry): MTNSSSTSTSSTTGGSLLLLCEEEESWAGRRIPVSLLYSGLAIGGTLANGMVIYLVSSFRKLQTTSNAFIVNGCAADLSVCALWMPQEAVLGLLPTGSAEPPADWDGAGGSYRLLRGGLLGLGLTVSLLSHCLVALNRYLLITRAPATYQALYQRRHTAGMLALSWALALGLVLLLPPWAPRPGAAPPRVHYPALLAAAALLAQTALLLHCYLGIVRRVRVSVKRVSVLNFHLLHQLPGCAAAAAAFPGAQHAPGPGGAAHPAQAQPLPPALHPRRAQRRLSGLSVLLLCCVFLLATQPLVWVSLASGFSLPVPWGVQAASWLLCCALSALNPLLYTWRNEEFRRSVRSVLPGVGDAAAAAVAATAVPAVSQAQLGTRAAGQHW

The pEC50 is the EC50 on a negative log10 scale, so that one unit is a factor of ten. A high value points to a small EC50. `CC[C@H](C)[C@H](N)CN(C(=O)[C@@H]1C[C@H]1c1ccccn1)c1ccc(-c2ccc(Cl)cc2)cc1` (relative stereo) [5q, (1R*,2R*)-2-(Pyridin-2-yl)cyclopropanecarboxylic Acid [(2S,3S)-2-Amino-3-methylpentyl]-(4′-chlorobiphenyl-4-yl)amide] had a pEC50 (EC50) of 6.67.

In the case of `CC[C@H](C)[C@H](N)CN(C(=O)[C@@H]1C[C@H]1c1ccccn1)c1ccc(-c2ccc(NC(C)=O)cc2)cc1` (relative stereo) [5y, (1R*,2R*)-2-(Pyridin-2-yl)cyclopropanecarboxylic Acid [(2S,3S)-2-Amino-3-methylpentyl]-(4′-acetamidobiphenyl-4-yl)amide], the “agonist activity in words” value was “least activity in the series”.

With `CC[C@H](C)[C@H](N)CN(C(=O)[C@@H]1C[C@H]1c1ccccn1)c1ccc(-c2ccc(C(N)=O)cc2)cc1` (relative stereo) [5z, (1R*,2R*)-2-(Pyridin-2-yl)cyclopropanecarboxylic Acid [(2S,3S)-2-Amino-3-methylpentyl]-(4′-carbamoylbiphenyl-4-yl)amide], the “agonist activity in words” value was “least activity in the series”.

By EC50 is commonly meant the concentration needed to bring the measured effect to its halfway point. A low value points to a more potent agent. As for `CC[C@H](C)[C@H](N)CN(C(=O)[C@@H]1C[C@H]1c1ccccn1)c1ccc(-c2ccc(C)cc2)cc1` (relative stereo) [5a, (1R*,2R*)-2-(Pyridin-2-yl)cyclopropanecarboxylic Acid [(2S,3S)-2-Amino-3-methylpentyl]-(4′-methylbiphenyl-4-yl)amide], the EC50 was found to be 104 nM. Besides, under “EC50”, the pEC50 is 6.98.

Regarding `CCOC(=O)c1ccc(-c2ccc(N(C[C@@H](N)[C@@H](C)CC)C(=O)[C@@H]3C[C@H]3c3ccccn3)cc2)cc1` (relative stereo) [5u, (1R*,2R*)-2-(Pyridin-2-yl)cyclopropanecarboxylic Acid [(2S,3S)-2-Amino-3-methylpentyl]-(4′-ethoxycarbonylbiphenyl-4-yl)amide], the pEC50 (EC50) was 6.59.

`CC[C@H](C)[C@H](N)CN(C(=O)[C@@H]1C[C@H]1c1ccccn1)c1ccc(-c2ccc(C(C)=O)cc2)cc1` (relative stereo) [5t, (1R*,2R*)-2-(Pyridin-2-yl)cyclopropanecarboxylic Acid [(2S,3S)-2-Amino-3-methylpentyl]-(4′-acetylbiphenyl-4-yl)amide] showed a pEC50 (EC50) of 6.45.

Compound `CC[C@H](C)[C@H](N)CN(C(=O)[C@@H]1C[C@H]1c1ccccn1)c1ccc(-c2ccccc2)cc1` (relative stereo) [4d, (1R*,2R*)-2-(Pyridin-2-yl)cyclopropanecarboxylic Acid [(2S,3S)-2-Amino-3-methylpentyl]-(biphenyl-4-yl)amide] had a negative logarithm of the EC50 (pEC50) of 6.55.

`CC[C@H](C)[C@H](N)CN(C(=O)[C@@H]1C[C@H]1c1ccccn1)c1ccc(-c2ccc(OC(C)C)cc2)cc1` (relative stereo) [5m, (1R*,2R*)-2-(Pyridin-2-yl)cyclopropanecarboxylic Acid [(2S,3S)-2-Amino-3-methylpentyl]-(4′-isopropoxybiphenyl-4-yl)amide] showed a pEC50 of 7.11.

On to `CC[C@H](C)[C@H](N)CN(C(=O)[C@@H]1C[C@H]1c1ccccn1)c1ccc(-c2ccc(N(C)C)cc2)cc1` (relative stereo) [5x, (1R*,2R*)-2-(Pyridin-2-yl)cyclopropanecarboxylic Acid [(2S,3S)-2-Amino-3-methylpentyl]-[4′-(dimethylamino)biphenyl-4-yl]amide], for which the negative logarithm of the EC50 (pEC50) (EC50) is 6.53.

Regarding `CC[C@H](C)[C@H](N)CN(C(=O)[C@@H]1C[C@H]1c1ccccn1)c1ccc(-c2ccc(C(C)C)cc2)cc1` (relative stereo) [5d, (1R*,2R*)-2-(Pyridin-2-yl)cyclopropanecarboxylic Acid [(2S,3S)-2-Amino-3-methylpentyl]-(4′-isopropylbiphenyl-4-yl)amide], the negative-log EC50 (pEC50) (EC50) is 6.59.

In the case of `CCOc1ccc(-c2ccc(N(C[C@@H](N)[C@@H](C)CC)C(=O)[C@@H]3C[C@H]3c3ccccn3)cc2)cc1` (relative stereo) [5l, (1R*,2R*)-2-(Pyridin-2-yl)cyclopropanecarboxylic Acid [(2S,3S)-2-Amino-3-methylpentyl]-(4′-ethoxybiphenyl-4-yl)amide], the half-maximal effective concentration (EC50) was 82 nM. The compound further had a pEC50 (EC50) of 7.09.

`CC[C@H](C)[C@H](N)CN(C(=O)[C@@H]1C[C@H]1c1ccccn1)c1ccc(-c2ccc([N+](=O)[O-])cc2)cc1` (relative stereo) [5s, (1R*,2R*)-2-(Pyridin-2-yl)cyclopropanecarboxylic Acid [(2S,3S)-2-Amino-3-methylpentyl]-(4′-nitrobiphenyl-4-yl)amide] showed a pEC50 (EC50) of 6.56.

For `CC[C@H](C)[C@H](N)CN(C(=O)[C@@H]1C[C@H]1c1ccccn1)c1ccc(-c2ccc(CC(C)C)cc2)cc1` (relative stereo) [5e, (1R*,2R*)-2-(Pyridin-2-yl)cyclopropanecarboxylic Acid [(2S,3S)-2-Amino-3-methylpentyl]-(4′-isobutylbiphenyl-4-yl)amide], for the setting “EC50”, the negative-log EC50 (pEC50) was 6.57.

With `CC[C@H](C)[C@H](N)CN(C(=O)[C@@H]1C[C@H]1c1ccccn1)c1ccc(-c2ccc(C#N)cc2)cc1` (relative stereo) [5r, (1R*,2R*)-2-(Pyridin-2-yl)cyclopropanecarboxylic Acid [(2S,3S)-2-Amino-3-methylpentyl]-(4′-cyanobiphenyl-4-yl)amide], the pEC50 (EC50) was 6.71. The pEC50 values of the last two compounds are within 0.2 log units of each other.

Take “(1R*,2R*)-2-(Pyridin-2-yl)cyclopropanecarboxylic Acid [(2S,3S)-2-Amino-3-methylpentyl]-(4′-phenoxyphenyl-4-yl)amide [4e]”: the “agonist activity in words” value is “deteriorated activity”.

For `CC[C@H](C)[C@H](N)CN(C(=O)[C@@H]1C[C@H]1c1ccccn1)c1ccc(-c2ccc(OC)c(OC)c2)cc1` (relative stereo) [5n, (1R*,2R*)-2-(Pyridin-2-yl)cyclopropanecarboxylic Acid [(2S,3S)-2-Amino-3-methylpentyl]-(3′,4′-dimethoxybiphenyl-4-yl)amide], the “fold loss of activity” value is recorded as “approximately 10 fold”. For the same compound, the pEC50 (EC50) is 6.04.

Compound `CC[C@H](C)[C@H](N)CN(C(=O)[C@@H]1C[C@H]1c1ccccn1)c1ccc(-c2ccc3c(c2)OCO3)cc1` (relative stereo) [5o, (1R*,2R*)-2-(Pyridin-2-yl)cyclopropanecarboxylic Acid [(2S,3S)-2-Amino-3-methylpentyl]-(3′,4′-methylenedioxybiphenyl-4-yl)amide] returned a 50% effective concentration (EC50) of 204 nM. Further, the pEC50 (EC50) was 6.69.

Consider `CC[C@H](C)[C@H](N)CN(C(=O)[C@@H]1C[C@H]1c1ccccn1)c1ccc(-c2ccc(C3CCCCC3)cc2)cc1` (relative stereo) [5h, (1R*,2R*)-2-(Pyridin-2-yl)cyclopropanecarboxylic Acid [(2S,3S)-2-Amino-3-methylpentyl]-(4′-cyclohexylbiphenyl-4-yl)amide], for which the negative-log EC50 (pEC50) by setting is: (EC50) 6.75; (pEC50) 6.76.

On to “(1R*,2R*)-2-(Pyridin-2-yl)cyclopropanecarboxylic Acid [(2S,3S)-2-Amino-3-methylpentyl]-(4′-benzylphenyl-4-yl)amide [4f]”, for which the “agonist activity in words” value is given as “deteriorated activity”.

As to `CC[C@H](C)[C@H](N)CN(C(=O)[C@@H]1C[C@H]1c1ccccn1)c1ccc(-c2ccc(C(F)(F)F)cc2)cc1` (relative stereo) [5b, (1R*,2R*)-2-(Pyridin-2-yl)cyclopropanecarboxylic Acid [(2S,3S)-2-Amino-3-methylpentyl]-(4′-trifluoromethylbiphenyl-4-yl)amide], where the note is “EC50”, the pEC50 is 6.73.

Regarding `CC[C@H](C)[C@H](N)CN(C(=O)[C@@H]1C[C@H]1c1ccccn1)c1ccc(-c2ccc(N)cc2)cc1` (relative stereo) [5w, (1R*,2R*)-2-(Pyridin-2-yl)cyclopropanecarboxylic Acid [(2S,3S)-2-Amino-3-methylpentyl]-(4′-aminobiphenyl-4-yl)amide], the “agonist activity in words” value was “significant decrease in activity”. The compound also showed a negative logarithm of the EC50 (pEC50) (EC50) of 5.95.

With `CC[C@H](C)[C@H](N)CN(C(=O)[C@@H]1C[C@H]1c1ccccn1)c1ccc(-c2ccc(C(=O)N(C)C)cc2)cc1` (relative stereo) [5aa, (1R*,2R*)-2-(Pyridin-2-yl)cyclopropanecarboxylic Acid [(2S,3S)-2-Amino-3-methylpentyl]-[4′-(dimethylcarbamoyl)biphenyl-4-yl]-amide], the “agonist activity in words” value was “least activity in the series”. Where the note is “EC50”, the negative logarithm of the EC50 (pEC50) was 5.48.

`CCc1ccc(-c2ccc(N(C[C@@H](N)[C@@H](C)CC)C(=O)[C@@H]3C[C@H]3c3ccccn3)cc2)cc1` (relative stereo) [5c, (1R*,2R*)-2-(Pyridin-2-yl)cyclopropanecarboxylic Acid [(2S,3S)-2-Amino-3-methylpentyl]-(4′-ethylbiphenyl-4-yl)amide] showed an EC50 of 85 nM. The same compound gave a pEC50 (EC50) of 7.07.

As to `CC[C@H](C)[C@H](N)CN(C(=O)[C@@H]1C[C@H]1c1ccccn1)c1ccc(-c2ccc(C(C)(C)C)cc2)cc1` (relative stereo) [5f, (1R*,2R*)-2-(Pyridin-2-yl)cyclopropanecarboxylic Acid [(2S,3S)-2-Amino-3-methylpentyl]-(4′-tert-butylbiphenyl-4-yl)amide], the pEC50 (EC50) was 6.29.

In turn, `CCCCCCc1ccc(-c2ccc(N(C[C@@H](N)[C@@H](C)CC)C(=O)[C@@H]3C[C@H]3c3ccccn3)cc2)cc1` (relative stereo) [5g, (1R*,2R*)-2-(Pyridin-2-yl)cyclopropanecarboxylic Acid [(2S,3S)-2-Amino-3-methylpentyl]-(4′-hexylbiphenyl-4-yl)amide] gave a negative-log EC50 (pEC50) (EC50) of 6.87.

As for “(1R*,2R*)-2-(Pyridin-2-yl)cyclopropanecarboxylic Acid [(2S,3S)-2-Amino-3-methylpentyl]-(4′-phenethylphenyl-4-yl)amide [4g]”, the “agonist activity in words” value is listed as “deteriorated activity”.

Regarding `CC[C@H](C)[C@H](N)CN(C(=O)[C@@H]1C[C@H]1c1ccccn1)c1ccc(-c2ccc(O)cc2)cc1` (relative stereo) [5v, (1R*,2R*)-2-(Pyridin-2-yl)cyclopropanecarboxylic Acid [(2S,3S)-2-Amino-3-methylpentyl]-(4′-hydroxybiphenyl-4-yl)amide], the “agonist activity in words” value is “significant decrease in activity”. Also, the pEC50 (EC50) was 5.54.
